Laboratory results as given in ChEMBL document CHEMBL4130376, “Discovery of methylsulfonyl indazoles as potent and orally active respiratory syncytial Virus(RSV) fusion inhibitors” (Eur J Med Chem, 2017).

Assays:
[1] = Plasma clearance in ICR mouse at 2 mg/kg, iv; assay type: ADME, organism-based
[2] = (§1) Oral bioavailability in ICR mouse at […]; assay type: ADME, organism-based; conditions: in vivo
[3] = (§2) AUC (0 to 24 hrs) in ICR mouse at […], po; assay type: ADME, organism-based; design: time < 24 hr, dose 7.9 mg/kg, route oral; conditions: in vivo
[4] = Metabolic stability in mouse liver microsomes by high-throughput screening based assay; assay type: ADME, microsome; conditions: read-out: Stability
[5] = Half life in ICR mouse at […], po; assay type: ADME, organism-based; conditions: in vivo
[6] = Half life in ICR mouse at 2 mg/kg, iv; assay type: ADME, organism-based; conditions: in vivo
[7] = (§3) AUC (0 to 24 hrs) in ICR mouse at 2 mg/kg, iv; assay type: ADME, organism-based; design: time < 24 hr, dose 2 mg/kg, route intravenous; conditions: ICR, in vivo
[8] = Cmax in ICR mouse at 2 mg/kg, iv; assay type: ADME, organism-based; design: dose 2 mg/kg, route intravenous; conditions: in vivo
[9] = Metabolic stability in rat liver microsomes by high-throughput screening based assay; assay type: ADME, microsome; conditions: read-out: Stability
[10] = (§4) Cmax in ICR mouse at […], po; assay type: ADME, organism-based; design: dose 7.9 mg/kg, route oral; conditions: in vivo
[11] = Tmax in ICR mouse at […], po; assay type: ADME, organism-based; conditions: in vivo
[12] = Volume of distribution at steady state in ICR mouse at 2 mg/kg, iv; assay type: ADME, organism-based; conditions: in vivo, read-out: Vdss
[13] = Effective permeability of the compound by PAMPA; assay type: ADME; conditions: read-out: Peff
[14] = Metabolic stability in human liver microsomes by high-throughput screening based assay; assay type: ADME, microsome; conditions: read-out: Stability
[15] = Volume of distribution at steady state in rat at 2 mg/kg, iv; assay type: ADME, organism-based; conditions: in vivo, read-out: Vdss
[16] = Half life in rat at 2 mg/kg, iv; assay type: ADME, organism-based; conditions: in vivo
[17] = Tmax in rat at 10 mg/kg, po; assay type: ADME, organism-based; conditions: in vivo
[18] = Half life in rat at 10 mg/kg, po; assay type: ADME, organism-based; conditions: in vivo
[19] = Cmax in rat at 10 mg/kg, po; assay type: ADME, organism-based; design: dose 10 mg/kg, route oral; conditions: in vivo
[20] = Plasma clearance in rat at 2 mg/kg, iv; assay type: ADME, organism-based
[21] = Oral bioavailability in rat at 10 mg/kg; assay type: ADME, organism-based; conditions: in vivo
[22] = AUC (0 to 24 hrs) in rat at 10 mg/kg, po; assay type: ADME, organism-based; design: time < 24 hr, dose 10 mg/kg, route oral; conditions: in vivo
[23] = AUC (0 to 24 hrs) in rat at 2 mg/kg, iv; assay type: ADME, organism-based; design: dose 2 mg/kg, time < 24 hr, route intravenous; conditions: in vivo
[24] = Cmax in rat at 2 mg/kg, iv; assay type: ADME, organism-based; design: dose 2 mg/kg, route intravenous; conditions: in vivo
[25] = Half life in rat at 1 mg/kg, iv; assay type: ADME, organism-based; conditions: in vivo
[26] = Volume of distribution at steady state in rat at 1 mg/kg, iv; assay type: ADME, organism-based; conditions: in vivo, read-out: Vdss
[27] = Oral bioavailability in rat at 5 mg/kg; assay type: ADME, organism-based; conditions: in vivo
[28] = Cmax in rat at 1 mg/kg, iv; assay type: ADME, organism-based; design: dose 1 mg/kg, route intravenous; conditions: in vivo
[29] = test system: Rattus norvegicus; test: AUC (0 to 24 hrs) in rat at 1 mg/kg, iv; assay type: ADME, organism-based; design: dose 1 mg/kg, time < 24 hr, route intravenous; conditions: in vivo
[30] = Tmax in rat at 5 mg/kg, po; assay type: ADME, organism-based; conditions: in vivo
[31] = AUC (0 to 24 hrs) in rat at 5 mg/kg, po; assay type: ADME, organism-based; design: dose 5 mg/kg, time < 24 hr, route oral; conditions: in vivo
[32] = Cmax in rat at 5 mg/kg, po; assay type: ADME, organism-based; design: dose 5 mg/kg, route oral; conditions: in vivo
[33] = test system: Mus musculus; test: as §1; assay type: ADME, organism-based; conditions: in vivo
[34] = test system: Mus musculus; test: as §3; assay type: ADME, organism-based; design: time < 24 hr, dose 2 mg/kg, route intravenous; conditions: in vivo, 24 h
[35] = as §4; assay type: ADME, organism-based; design: dose 8.3 mg/kg, route oral; conditions: in vivo
[36] = test system: Mus musculus; test: as §2; assay type: ADME, organism-based; design: time < 24 hr, dose 8.3 mg/kg, route oral; conditions: in vivo
[37] = test system: Mus musculus; test: AUC (0 to 24 hrs) in ICR mouse at 25 mg/kg, po; assay type: ADME, organism-based; design: dose 25 mg/kg, time < 24 hr, route oral; conditions: in vivo
[38] = Half life in ICR mouse at 25 mg/kg, po; assay type: ADME, organism-based; conditions: in vivo
[39] = Cmax in ICR mouse at 25 mg/kg, po; assay type: ADME, organism-based; design: dose 25 mg/kg, route oral; conditions: in vivo
[40] = test system: Mus musculus; test: Oral bioavailability in ICR mouse at 25 mg/kg; assay type: ADME, organism-based; conditions: in vivo
[41] = Tmax in ICR mouse at 25 mg/kg, po; assay type: ADME, organism-based; conditions: in vivo

| Compound | CLhep predicted [4] | half-life [6] | Cmax [8] | CLhep predicted [9] | Vd [12] | Papp [13] | CLhep predicted [14] | other results |
| --- | --- | --- | --- | --- | --- | --- | --- | --- |
| CC(C)(O)CCn1c(Cn2nc(S(C)(=O)=O)c3ccncc32)nc2cc(Cl)ccc21 | 26.6 mL/min/kg | 0.47 h | 894 ng/mL | 8.45 mL/min/kg | 1.93 L/kg | 2.39 ×10⁻⁶ cm/s | 2.95 mL/min/kg | clearance [1]: 61.1 mL/min/kg; bioavailability [2]: 32.5%; AUC(0-t) at 24 h [3]: 546 ng·h/mL; half-life [5]: 1.98 h; AUC(0-t) at 24 h [7]: 701 ng·h/mL; Cmax [10]: 324 ng/mL; Tmax [11]: 0.25 h |
| CS(=O)(=O)CCCn1c(Cn2nc(S(C)(=O)=O)c3ccccc32)nc2cc(Cl)ccc21 | 14.9 mL/min/kg | – | – | – | – | 2.78 ×10⁻⁶ cm/s | 3.42 mL/min/kg | Vd [15]: 2.5 L/kg; half-life [16]: 3.91 h; Tmax [17]: 2.67 h; half-life [18]: 3.66 h; Cmax [19]: 22.2 ng/mL; clearance [20]: 17.4 mL/min/kg; bioavailability [21]: 1.7%; AUC(0-t) at 24 h [22]: 204 ng·h/mL; AUC(0-t) at 24 h [23]: 2470 ng·h/mL; Cmax [24]: 1160 ng/mL |
| CS(=O)(=O)c1nn(Cc2nc3cc(Cl)ccc3n2CCOCCO)c2cnccc12 | 14.2 mL/min/kg | – | – | 13.7 mL/min/kg | – | 3.12 ×10⁻⁶ cm/s | 1.91 mL/min/kg | – |
| CS(=O)(=O)CCCn1c(Cn2nc(S(C)(=O)=O)c3ccncc32)nc2cc(Cl)ccc21 | 75.5 mL/min/kg | – | – | 39.9 mL/min/kg | – | 1.55 ×10⁻⁶ cm/s | 11.3 mL/min/kg | – |
| CS(=O)(=O)CCCn1c(Cn2cc(S(C)(=O)=O)c3ccccc32)nc2cc(Cl)ccc21 | 34 mL/min/kg | – | – | 1.33 mL/min/kg | – | 1.55 to 2.36 ×10⁻⁶ cm/s | 0.66 mL/min/kg | half-life [25]: 0.674 h; Vd [26]: 2.71 L/kg; bioavailability [27]: 1.46%; Cmax [28]: 371 ng/mL; AUC [29]: 294 ng·h/mL; Tmax [30]: 4.67 h; AUC(0-t) at 24 h [31]: 21.4 ng·h/mL; Cmax [32]: 4.05 ng/mL |
| CS(=O)(=O)c1nn(Cc2nc3cc(Cl)ccc3n2CCC(F)(F)F)c2cnccc12 | 18 mL/min/kg | 1.03 h | 1940 ng/mL | 0.28 mL/min/kg | 1.04 L/kg | 2.81 ×10⁻⁶ cm/s | 1.09 mL/min/kg | clearance [1]: 12.2 mL/min/kg; F [33]: 42.8%; half-life [5]: 3.16 h; AUC [34]: 4830 ng·h/mL; Cmax [35]: 589 ng/mL; Tmax [11]: 1 h; AUC [36]: 2730 ng·h/mL |
| CS(=O)(=O)CCn1c(Cc2cn(S(C)(=O)=O)c3ccccc23)nc2ccccc21 | 73.2 mL/min/kg | – | – | – | – | – | 16.5 mL/min/kg | – |
| CN(C)S(=O)(=O)c1cn(Cc2nc3cc(Cl)ccc3n2CCCS(C)(=O)=O)c2ccccc12 | 81.7 mL/min/kg | – | – | 56.2 mL/min/kg | – | 1.55 ×10⁻⁶ cm/s | 21.9 mL/min/kg | – |
| CS(=O)(=O)c1nn(Cc2nc3cc(Cl)ccc3n2CCCCO)c2cnccc12 | 25.5 mL/min/kg | 0.297 h | 1420 ng/mL | 20.7 mL/min/kg | 1.08 L/kg | 2.42 ×10⁻⁶ cm/s | 2.58 mL/min/kg | AUC [37]: 580 ng·h/mL; half-life [38]: 1.81 h; AUC [34]: 1380 ng·h/mL; Cmax [39]: 425 ng/mL; F [40]: 19%; Tmax [41]: 0.25 h |
